Test systems include TK-10 renal; HL-60(TB) leukemia; NCI-H522 lung; SF-295 CNS; 786-0 renal; OVCAR-3 ovarian; MALME-3M melanoma; MDA-MB-231 breast; MDA-MB-435.
What all share (experiment): DTP human tumour cell line panel, 48 h

Molecules are shown by their SMILES.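 96-well plates; 48 h exposure; 5 concentrations. Endpoints by linear interpolation between flanking doses. Not reached: highest tested concentration assigned. Abbreviation: GI50, concentration required for 50% inhibition of growth. TGI marks complete inhibition of growth.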 Where only a bound is given, the exact number is not on record here.

By TGI is commonly meant the concentration giving total growth inhibition. High values mean lower sensitivity of the cells, low ones greater sensitivity of the cells. Turning to `Cn1nc(-c2ccccc2)c(C(=O)/C=C/c2ccc(Cl)cc2)c(N2CCCCC2)c1=O`, the TGI in the test with TK-10 renal worked out at 14.3 µM; with HL-60(TB) leukemia, 4 µM; in the test on NCI-H522 lung, 4.26 µM; with SF-295 CNS it was 2.14 µM; in the test on 786-0 renal, 3.67 µM.
With `CC1=C[C@]2(O)C(=O)[C@H](C)C[C@H]3[C@@H](CC[C@@](C)(O)/C=C\2C1=O)C3(C)C`, the concentration for total growth inhibition (TGI) is over 78.7 µM with TK-10 renal; 38.1 µM in the test on OVCAR-3 ovarian; over 100 µM in the test with HL-60(TB) leukemia; 54.4 µM in the test with MALME-3M melanoma; 26.7 µM in the test with NCI-H522 lung; 75.8 µM in the test with SF-295 CNS. Moreover, the TGI in the test with 786-0 renal is 39.5 µM.
A word on the GI50: it is the concentration at which growth is held to half of that of the control. As to `CCC(=O)Nc1ccccc1C#C/C=C\C#Cc1ccccc1SC`, the GI50 in the test with TK-10 renal was 50.4 µM; in the test with OVCAR-3 ovarian, 8.87 µM; in the test on HL-60(TB) leukemia, 1.46 µM; in the test on MDA-MB-231 breast it was 7.92 µM; with MALME-3M melanoma, 35.1 µM; in the test on NCI-H522 lung, 8.89 µM. For the same molecule, the values for the GI50 with MDA-MB-435 and in the test with 786-0 renal were 1.92 µM and 33.6 µM, respectively. For the same molecule, the TGI in the test on TK-10 renal is over 100 µM; with OVCAR-3 ovarian, 80.6 µM; with HL-60(TB) leukemia, over 100 µM; in the test with MDA-MB-231 breast it was over 100 µM; with MALME-3M melanoma, over 100 µM; in the test with NCI-H522 lung, over 100 µM. Further, the results for the TGI with MDA-MB-435 and in the test on 786-0 renal were 6.17 µM and over 100 µM, respectively.
`CCOc1ccc(N=Cc2ccc3cc(C)ccc3n2)cc1`: the TGI is over 100 µM with TK-10 renal; over 100 µM with OVCAR-3 ovarian; 48 µM in the test on HL-60(TB) leukemia; over 100 µM in the test on MALME-3M melanoma; over 100 µM with NCI-H522 lung; over 100 µM with SF-295 CNS. The molecule also had a TGI in the test on 786-0 renal of over 100 µM.
As for `CC(C)(C)CC(C)(C)c1cc2c(O)c(c1)Cc1cc(C(C)(C)CC(C)(C)C)cc(c1O)Cc1cc(C(C)(C)CC(C)(C)C)cc(c1O)Cc1cc(C(C)(C)CC(C)(C)C)cc(c1O)Cc1cc(C(C)(C)CC(C)(C)C)cc(c1O)C2`, the TGI with TK-10 renal, in the test with OVCAR-3 ovarian, in the test with HL-60(TB) leukemia, in the test on MALME-3M melanoma, in the test on NCI-H522 lung and in the test on SF-295 CNS was over 100 µM throughout. Besides, the TGI with 786-0 renal is over 100 µM.
Take `COC(=O)C1=C(O)c2cc(-c3ccccc3)c(-c3ccccc3)c(C#N)c2NC(=O)C1`: the TGI was over 100 µM in the test with OVCAR-3 ovarian, 42.1 µM in the test with SF-295 CNS and over 100 µM with 786-0 renal.
In the case of `COc1ccc2c3c([nH]c2c1[N+](=O)[O-])C(C)N(Cc1ccc([N+](=O)[O-])cc1)CC3` (centres undefined), the TGI in the test on TK-10 renal is over 100 µM; in the test with OVCAR-3 ovarian it was 64.7 µM; with HL-60(TB) leukemia, 17.9 µM; in the test with NCI-H522 lung it was 20.8 µM; in the test with SF-295 CNS, 43 µM; in the test on 786-0 renal, over 100 µM.
Consider `O=C1C=CC(=O)C12CCc1ccccc12`, for which the TGI is over 100 µM in the test with TK-10 renal; over 100 µM in the test on OVCAR-3 ovarian; over 60.6 µM with HL-60(TB) leukemia; over 100 µM with MALME-3M melanoma; 33.2 µM in the test with NCI-H522 lung; over 31.6 µM with SF-295 CNS. Also, the TGI in the test on 786-0 renal is over 100 µM.
On to `O=S(=O)(NCCCNc1nccc(-c2c(-c3ccc(F)c(O)c3)nc3sccn23)n1)c1ccc(F)cc1`, for which the GI50 in the test with TK-10 renal is 4.33 µM; in the test with HL-60(TB) leukemia it was 1.86 µM; in the test with MALME-3M melanoma, 0.0316 µM; in the test on NCI-H522 lung, 1.93 µM; in the test on SF-295 CNS, 2.19 µM; with MDA-MB-435, 0.636 µM. Moreover, the GI50 with 786-0 renal was 3.35 µM. Moreover, the TGI in the test with TK-10 renal is 86.3 µM; with HL-60(TB) leukemia, 5.26 µM; with MALME-3M melanoma, 1.01 µM; in the test on NCI-H522 lung it was 6.04 µM; in the test with SF-295 CNS, 5.27 µM; in the test with MDA-MB-435, 3.35 µM. The TGI with 786-0 renal was over 100 µM.
As to `COc1ccc(-c2cc(=O)c3ccccc3o2)cc1N`, the TGI in the test on TK-10 renal was over 100 µM; in the test with OVCAR-3 ovarian it was over 100 µM; with HL-60(TB) leukemia, 47.9 µM; in the test with MALME-3M melanoma, over 100 µM; with NCI-H522 lung, 77.6 µM; in the test with SF-295 CNS, over 100 µM. The TGI in the test with 786-0 renal was over 100 µM.
Take `O=C1[C@H]2ON(c3ccccc3)C(c3ccccc3)[C@H]2C(=O)N1c1ccc(Cc2ccc(N3C(=O)[C@@H]4ON(c5ccccc5)C(c5ccccc5)[C@@H]4C3=O)cc2)cc1` (some centres undefined): the TGI with OVCAR-3 ovarian, in the test on HL-60(TB) leukemia, in the test on MALME-3M melanoma, in the test on SF-295 CNS and in the test on 786-0 renal was over 100 µM each time.
For the molecule `O=C1O[C@H](c2ccccc2)[C@@H]2CC3(CCN12)OCCO3`, the TGI was over 100 µM in the test with TK-10 renal; over 100 µM in the test with OVCAR-3 ovarian; over 100 µM with HL-60(TB) leukemia; 7.48 µM in the test on NCI-H522 lung; over 100 µM in the test with SF-295 CNS; over 100 µM in the test with 786-0 renal.
Regarding `CCN(CC)CCCNC(=O)C1COc2cc(-c3cc(=O)c4ccccc4o3)ccc2O1` (centres undefined), the TGI was over 100 µM in the test on TK-10 renal; over 100 µM with OVCAR-3 ovarian; over 100 µM in the test on HL-60(TB) leukemia; 36.8 µM with MALME-3M melanoma; over 100 µM in the test with NCI-H522 lung; over 100 µM with SF-295 CNS. Also, the TGI with 786-0 renal is over 100 µM.
Take `O=C(O)NC(c1ccccc1)C(NC(=O)c1ccccc1)c1ccccc1` (centres undefined): the TGI with TK-10 renal, in the test on OVCAR-3 ovarian, with MALME-3M melanoma, with SF-295 CNS and in the test on 786-0 renal was over 100 µM throughout.
For the molecule `CCOC(=O)Cc1ccc2c(c1O)C(=O)c1c(ccc(CC(=O)OCC)c1O)C2=O`, the TGI in the test with TK-10 renal, with OVCAR-3 ovarian, in the test on HL-60(TB) leukemia, in the test on MALME-3M melanoma, with NCI-H522 lung and in the test on SF-295 CNS was over 100 µM each time. In the test with 786-0 renal, this molecule showed a TGI of over 100 µM.

Source of the values: PubChem BioAssay (NCI).
